Common to all, as to test: DTP human tumour cell line panel, 48 h
The test system of test [1] is MOLT-4 leukemia.
The test system of test [2] is HOP-62 NSCLC.
For test [3], the system named is MDA-MB-231 breast.
In test [4] the test system is HCC-2998 colon.
Test [5] relates to NCI/ADR-RES ovarian.
The subject of test [6] is COLO 205 colon.
For test [7], the system named is NCI-H522 lung.
The subject of test [8] is UACC-62 melanoma.
Test [9] deals with MCF7 breast.
Test [10] concerns EKVX NSCLC.
The subject of test [11] is NCI-H23 lung.
The test system of test [12] is OVCAR-3 ovarian.
The test system of test [13] is HCT-15 colon.
For test [14], the system named is SK-MEL-5 melanoma.
Test [15] relates to SF-268 CNS.
Test [16] concerns SF-295 CNS.

Each structure is given as a SMILES string.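 These data come from cells grown in 96-well plates and exposed to compound for 48 hours at five concentrations. Definition used: TGI = concentration required for complete inhibition of growth.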 Where a SMILES comes first, the peptide text is derived from it. [ ]: non-standard residue; d: D form. The star is where a group is joined. Phe(4-NO2) = N[CH](Cc1ccc([N+](=O)[O-])cc1)C(=O)O; Cbz = O=C(OCc1ccccc1)*

In general, TGI refers to the concentration at which net growth stops. In the case of `CCOC(=O)CCC(NC(=O)OCc1ccccc1)C(=O)NC(CCC(=O)OCC)C(=O)NC(CCC(=O)OCC)C(=O)NC(CCC(=O)OCC)C(=O)NC(CCC(=O)OCC)C(=O)NC(Cc1ccc([N+](=O)[O-])cc1)C(=O)NC(CCC(=O)OCC)C(=O)NC(CCC(=O)OCC)C(=O)NC(CCC(=O)OCC)C(=O)NC(CCC(=O)OCC)C(=O)NC(CCC(=O)OCC)C(=O)OCC` (centres undefined) (Cbz-E(OEt)E(OEt)E(OEt)E(OEt)E(OEt)[Phe(4-NO2)]E(OEt)E(OEt)E(OEt)E(OEt)E(OEt)-OEt; configuration not given here), the TGI is greater than 50 µM in test [1]; greater than 50 µM in test [2]; greater than 5 µM in test [3]; greater than 50 µM in [4]; greater than 50 µM in test [5]; greater than 50 µM in test [6]. The TGI in [7], in [8], in [9], in test [10], in [11] and in test [12] was greater than 50 µM in each case. The TGI in test [13], in test [14] and in test [15] was greater than 50 µM in each case.

For `Cc1ccc(C(=O)c2[nH]c(NCc3ccccc3)c(C(=S)Nc3ccccc3)c2N)cc1`, the TGI was found to be 6.38 µM in test [1]; 29.2 µM in [2]; 19.6 µM in test [3]; 2.65 µM in test [4]; 8.51 µM in test [5]; 18 µM in test [6]. The TGI came to 4.96 µM in test [7]; 17.2 µM in test [16]; 25.2 µM in test [8]; 13.2 µM in test [9]; 26.5 µM in [10]; 27.1 µM in [11]. The figures for the TGI in test [12], in test [13] and in test [15] were 25.2 µM, 4.33 µM and 28.8 µM, respectively.

For `CC(Oc1ccc(Cl)cc1Cl)C(=O)NN1C(=O)CC(=O)NC1=S` (centres undefined), the TGI in [2], in test [3], in [4], in test [5], in test [6] and in test [7] was greater than 100 µM throughout. Also, the TGI in test [16], in test [8], in [9], in test [10], in test [11] and in [12] was greater than 100 µM each time. In addition, the TGI in [13], in test [14] and in test [15] was greater than 100 µM each time.

Turning to `N#Cc1ccccc1NC(=O)C(O)C(O)C(O)C(O)C=O` (centres undefined), the TGI in test [1], in test [3], in test [4], in [5], in test [6] and in test [7] was greater than 100 µM in each case. For the same molecule, the TGI in test [16], in test [8], in [9], in [10], in [11] and in test [12] was greater than 100 µM throughout. Further, the TGI in test [13], in test [14] and in [15] was greater than 100 µM in each case.

Turning to `COC(=O)C1=CCC[C@H]2[C@@]1(COC(C)=O)CC[C@@H](C)[C@]2(C)CC(=O)c1ccoc1`, the TGI in test [1] is 31.8 µM; in test [3] it was greater than 50 µM; in [4], 37.5 µM; in test [5] it was greater than 50 µM; in test [6], 27.3 µM; in test [7] it was 22 µM. The TGI in test [16] is greater than 50 µM; in test [8], 20.1 µM; in test [9], greater than 50 µM; in test [10] it was greater than 50 µM; in test [11], 47.2 µM; in test [12], greater than 50 µM. Also, the TGI was 49.5 µM in test [13], 16.9 µM in test [14] and greater than 50 µM in test [15].

With `COc1ccc(C(=O)c2[nH]c(Nc3cc(C)ccn3)c(C(=S)Nc3ccccc3)c2N)cc1`, the total growth inhibition concentration (TGI) in test [1] is greater than 100 µM; in test [2] it was 72.2 µM; in [3] it was 44.5 µM; in [4], 37.4 µM; in test [5] it was 24.3 µM; in test [6] it was 41.5 µM. Also, the TGI was 29.9 µM in test [7]; 49.5 µM in test [16]; 26.7 µM in [8]; 75.2 µM in test [9]; greater than 100 µM in [10]; 72.6 µM in [11]. Besides, the TGI in test [12] is greater than 100 µM; in [13], 55.9 µM; in test [15] it was 68.2 µM.

Regarding `c1ccc2c(c1)n1c(N3CCCC3)[n+]3ccccc3c1c1c3cccc[n+]3c(N3CCCC3)n21`, the TGI was greater than 100 µM in test [1]; greater than 100 µM in [3]; greater than 100 µM in [4]; greater than 100 µM in [5]; 74.9 µM in test [6]; greater than 100 µM in test [7]. The TGI in [16], in [8], in test [9], in test [10], in test [11] and in [12] was greater than 100 µM in each case. Moreover, the figures for the TGI in [13], in test [14] and in [15] were greater than 100 µM, 65.8 µM and 45.2 µM, respectively.

As for `CC1=CC(=O)c2ccc3c4ccccc4n(C)c3c2C1=O`, the TGI in test [1] was greater than 72.8 µM; in test [2] it was greater than 100 µM; in [3] it was greater than 100 µM; in [4], greater than 100 µM; in test [5] it was greater than 100 µM; in test [6], greater than 100 µM. Further, the TGI is 78.9 µM in [7]; greater than 100 µM in test [16]; greater than 100 µM in test [9]; greater than 62.7 µM in test [10]; greater than 92 µM in [11]; greater than 100 µM in test [12]. Besides, the concentration for total growth inhibition (TGI) in test [13] is greater than 100 µM; in [14] it was 30.5 µM; in test [15] it was greater than 100 µM.

For `CCN1C(c2ccccc2)=CC(c2ccccc2)(C(Cl)(Cl)Cl)C=C1c1ccccc1`, the TGI in test [1] is 61.8 µM; in test [2] it was greater than 100 µM; in test [3] it was greater than 100 µM; in [4], 24.9 µM; in test [5], greater than 100 µM; in test [7] it was greater than 100 µM. Also, the TGI in test [16] was greater than 100 µM; in [9], greater than 100 µM; in [10] it was 83 µM; in test [11], 93.4 µM; in [12], greater than 100 µM; in test [13], greater than 100 µM. For the same molecule, the total growth inhibition concentration (TGI) in test [14] came out at 4.46 µM; in test [15], 86.3 µM.

These data come from PubChem BioAssay (NCI).
